As a reminder, the pIC50 is the IC50 on a negative log10 scale, so that one unit is a factor of ten.

pIC50: −log10 of the molar value.

One assay deals with T1, human p38 kinase alpha (Homo sapiens, UniProt Q16539).
T1 construct: The coding region of the human p38a cDNA was obtained by PCR-amplification from RNA isolated from the human monocyte cell line THP.1; GST (N); made in house; host or cells: E. coli DH10B
Description: p38 kinase in vitro assay, phosphorylation of biotinylated PHAS-I with gamma 32P-ATP. The class given is biochemical. To be noted: for pIC50: read-out: P38 alpha kinase IC50; for inhibition at 1 µM / inhibition at 10 µM: read-out: P38 alpha kinase % inhib @ conc. The procedure, abridged:
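MKK6-activated human p38α phosphorylates biotinylated PHAS-I with γ-32P-ATP in 25 mM HEPES pH 7.5, 10 mM Mg acetate, 50 μM unlabeled ATP, 1% DMSO, 30 °C for 1 h or overnight. Compounds at 100–0.001 μM (10-fold steps, triplicate); substrate captured on streptavidin filter plates and counted by scintillation.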

For a further assay, the system named is TNF-α. Description: LPS stimulation of TNF production by U937 cells. The class given is cell-based, human. Conditions: Homo sapiens; for pIC50: U-937, TNF production, LPS-stimulated human U937 cells, read-out: U937 Cell IC50; for inhibition at 1 µM: U-937, @ 1.0 uM, read-out: U937 Cell % inhib @ conc. The protocol:
Fifty million cells in 100 ml media were induced to terminal monocytic differentiation by 24 hour incubation with 20 ng/ml phorbol 12-myristate 13-acetate (Sigma). The cells were washed by centrifugation (200×g for 5 min) and resuspended in 100 ml fresh medium. After 24-48 hours, the cells were harvested, centrifuged, and resuspended in culture medium at 2 million cells/ml.
Compounds were prepared as 10 mM stock solutions in DMSO and diluted in culture medium to yield a final DMSO concentration of 0.1% in the cell assay. LPS (E coli, 100 ng/ml final concentration) was then added at a volume of 0.02 ml. After 4 hour incubation at 37° C., the amount of TNF-α released in the culture medium was quantitated by ELISA. Inhibitory potency is expressed as IC50 (μM).
In vitro whole cell assay for measuring the ability of the compounds to inhibit TNF production in human U937 cells stimulated with LPS are shown in the column identified as: […]

T1 sequence (Q16539 whole entry): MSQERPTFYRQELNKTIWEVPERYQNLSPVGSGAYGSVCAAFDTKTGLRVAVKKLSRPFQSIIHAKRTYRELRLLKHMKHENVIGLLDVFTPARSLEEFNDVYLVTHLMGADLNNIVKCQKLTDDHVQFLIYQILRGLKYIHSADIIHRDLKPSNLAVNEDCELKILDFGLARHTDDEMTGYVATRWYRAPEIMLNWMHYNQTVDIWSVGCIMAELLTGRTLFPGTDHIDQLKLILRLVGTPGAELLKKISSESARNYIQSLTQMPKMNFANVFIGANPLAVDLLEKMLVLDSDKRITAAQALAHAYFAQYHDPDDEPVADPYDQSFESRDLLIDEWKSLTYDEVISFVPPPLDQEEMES

On to `CC(C)COC(=O)NCc1[nH]nc(-c2ccc(F)cc2)c1-c1ccncc1` [Example B-0009], for which the pIC50 on human p38 kinase alpha was 7.40; with TNF-α it was 6.14.

With `CC(C)NC(=O)N[C@H](C)c1[nH]nc(-c2ccc(F)cc2)c1-c1ccncc1` [Example B-0401], the pIC50 on human p38 kinase alpha is 6.34. In addition, in the assay with TNF-α, the inhibition at 1 µM stood at 52%.

As for `CS(=O)(=O)NCc1[nH]nc(-c2ccc(F)cc2)c1-c1ccncc1` [Example B-0107], the results for the pIC50 at human p38 kinase alpha and in the assay on TNF-α were 6.57 and 5.30, respectively.

With `COc1ccc(C)cc1S(=O)(=O)N[C@H](C)c1[nH]nc(-c2ccc(F)cc2)c1-c1ccncc1` [Example B-0470], the pIC50 on human p38 kinase alpha was 7.20. In addition, the inhibition at 1 µM in the assay on TNF-α is 92%.

On to `O=C(NCc1[nH]nc(-c2ccc(F)cc2)c1-c1ccncc1)c1cccnc1` [Example B-0200], for which the pIC50 on human p38 kinase alpha was 5.88. The inhibition at 1 µM with TNF-α turned out to be 16%.

`CSCCC(=O)NCc1[nH]nc(-c2ccc(F)cc2)c1-c1ccncc1` [Example B-0081]: the inhibition at 1 µM at human p38 kinase alpha was 92%; in the assay on TNF-α, 13%.

As to `CC(=O)OC(C)(C)C(=O)N[C@H](C)c1[nH]nc(-c2ccc(F)cc2)c1-c1ccncc1` [Example B-0358], on human p38 kinase alpha, the pIC50 is 6.43. Besides, in the assay on TNF-α, the inhibition at 1 µM turned out to be 17%.

In the case of `CC(=O)Nc1ccc(S(=O)(=O)N[C@H](C)c2[nH]nc(-c3ccc(F)cc3)c2-c2ccncc2)cc1` [Example B-0431], the pIC50 on human p38 kinase alpha was 6.68. The inhibition at 1 µM in the assay with TNF-α is 64%.

Turning to `O=C(NCc1[nH]nc(-c2ccc(F)cc2)c1-c1ccncc1)c1ccc(F)c(F)c1` [Example B-0276], on human p38 kinase alpha, the pIC50 was 5.90. For the same molecule, the inhibition at 1 µM with TNF-α amounted to 26%.

Regarding `O=C(NCc1[nH]nc(-c2ccc(F)cc2)c1-c1ccncc1)c1c(F)ccc(F)c1F` [Example B-0278], the pIC50 at human p38 kinase alpha was 5.90. In addition, the inhibition at 1 µM in the assay on TNF-α is 36%.

On to `O=C(NCc1[nH]nc(-c2ccc(F)cc2)c1-c1ccncc1)c1cnc2ccccc2n1` [Example B-0206], for which the pIC50 at human p38 kinase alpha was 5.24. In the assay on TNF-α, the inhibition at 1 µM was found to be 14%.

On to `Cc1cc(C)c(S(=O)(=O)N[C@H](C)c2[nH]nc(-c3ccc(F)cc3)c2-c2ccncc2)c(C)c1` [Example B-0439], for which, on human p38 kinase alpha, the pIC50 was 5.67. In addition, in the assay with TNF-α, the inhibition at 1 µM was 65%.

`C[C@@H](NC(=O)c1cccnc1)c1[nH]nc(-c2ccc(F)cc2)c1-c1ccncc1` [Example B-0377]: at human p38 kinase alpha, the pIC50 was 5.89. Moreover, in the assay on TNF-α, the inhibition at 1 µM turned out to be 36%.

Turning to `O=C(NCc1[nH]nc(-c2ccc(F)cc2)c1-c1ccncc1)c1ccc(Cl)cc1` [Example B-0268], the pIC50 at human p38 kinase alpha was 5.47. The inhibition at 1 µM with TNF-α amounted to 19%.

On to `CSc1cccc(NC(=O)NCc2[nH]nc(-c3ccc(F)cc3)c2-c2ccncc2)c1` [Example B-0145], for which the inhibition at 10 µM on human p38 kinase alpha came to 54%. Further, the inhibition at 1 µM in the assay with TNF-α amounted to 12%.

As to `C[C@@H](NC(=O)c1cccs1)c1[nH]nc(-c2ccc(F)cc2)c1-c1ccncc1` [Example B-0528], the pIC50 on human p38 kinase alpha is 6.85. Besides, in the assay with TNF-α, the inhibition at 1 µM is 70%.

Regarding `O=C(NCc1[nH]nc(-c2ccc(F)cc2)c1-c1ccncc1)c1ccc(Cl)nc1` [Example B-0052], the inhibition at 1 µM came to 92% at human p38 kinase alpha and 15% with TNF-α.

As to `COc1ccc(OC)c(S(=O)(=O)N[C@H](C)c2[nH]nc(-c3ccc(F)cc3)c2-c2ccncc2)c1` [Example B-0457], on human p38 kinase alpha, the pIC50 is 7.05. Further, the inhibition at 1 µM with TNF-α was found to be 81%.

In the case of `O=C(NCc1[nH]nc(-c2ccc(F)cc2)c1-c1ccncc1)Nc1ccccc1` [Example B-0175], the inhibition at 10 µM on human p38 kinase alpha was found to be 41%. For the same molecule, the inhibition at 1 µM in the assay with TNF-α came out at 31%.

With `CC(C)NC(=O)NCc1[nH]nc(-c2ccc(F)cc2)c1-c1ccncc1` [Example B-0149], the figures for the pIC50 at human p38 kinase alpha and in the assay with TNF-α were 5.94 and 5.00, respectively.

Turning to `C[C@@H](NC(=O)c1cc(C(F)(F)F)ccc1F)c1[nH]nc(-c2ccc(F)cc2)c1-c1ccncc1` [Example B-0506], the pIC50 on human p38 kinase alpha is 6.03. Further, the inhibition at 1 µM in the assay on TNF-α is 43%.

For the molecule `O=C(NCc1[nH]nc(-c2ccc(F)cc2)c1-c1ccncc1)c1cc(Cl)cc(Cl)c1` [Example B-0273], at human p38 kinase alpha, the pIC50 was 5.30. Further, the inhibition at 1 µM in the assay on TNF-α amounted to 13%.

With `O=S(=O)(NCc1[nH]nc(-c2ccc(F)cc2)c1-c1ccncc1)c1cccc(Cl)c1Cl` [Example B-0230], the pIC50 at human p38 kinase alpha is 7.39. In addition, in the assay with TNF-α, the inhibition at 1 µM came out at 30%.

Consider `CCOC(=O)c1ccc(NC(=O)NCc2[nH]nc(-c3ccc(F)cc3)c2-c2ccncc2)cc1` [Example B-0161], for which the inhibition at 10 µM on human p38 kinase alpha amounted to 72%. For the same molecule, the inhibition at 1 µM in the assay with TNF-α was found to be 13%.

As for `Cc1ccccc1S(=O)(=O)N[C@H](C)c1[nH]nc(-c2ccc(F)cc2)c1-c1ccncc1` [Example B-0469], the pIC50 on human p38 kinase alpha is 7.25. Moreover, the inhibition at 1 µM with TNF-α was 92%.

Take `C[C@@H](NC(=O)c1ccc(C(F)(F)F)cc1)c1[nH]nc(-c2ccc(F)cc2)c1-c1ccncc1` [Example B-0527]: the pIC50 at human p38 kinase alpha was 5.96. Also, the inhibition at 1 µM in the assay on TNF-α was 63%.

Turning to `Cc1noc(C)c1S(=O)(=O)NCc1[nH]nc(-c2ccc(F)cc2)c1-c1ccncc1` [Example B-0251], the pIC50 at human p38 kinase alpha was 6.51. The inhibition at 1 µM in the assay with TNF-α is 1%.

For `O=C(NCc1[nH]nc(-c2ccc(F)cc2)c1-c1ccncc1)C1CC1` [Example B-0089], the pIC50 was 7.40 on human p38 kinase alpha and 5.48 in the assay on TNF-α.

For `CCc1ccccc1NC(=O)NCc1[nH]nc(-c2ccc(F)cc2)c1-c1ccncc1` [Example B-0169], the inhibition at 1 µM on human p38 kinase alpha stood at 43%; in the assay on TNF-α, 21%.

With `Cc1ccc(F)cc1S(=O)(=O)NCc1[nH]nc(-c2ccc(F)cc2)c1-c1ccncc1` [Example B-0232], the pIC50 on human p38 kinase alpha was 7.32. The inhibition at 1 µM in the assay with TNF-α came to 24%.

For `C[C@@H](NS(=O)(=O)c1ccc(Cl)c(Cl)c1)c1[nH]nc(-c2ccc(F)cc2)c1-c1ccncc1` [Example B-0465], at human p38 kinase alpha, the negative-log IC50 (pIC50) was 7.08. Moreover, the inhibition at 1 µM in the assay with TNF-α stood at 98%.

For the molecule `C[C@@H](NS(=O)(=O)c1ccccc1Cl)c1[nH]nc(-c2ccc(F)cc2)c1-c1ccncc1` [Example B-0463], the pIC50 at human p38 kinase alpha is 7.28. Besides, the inhibition at 1 µM in the assay with TNF-α was 95%.

Take `O=S(=O)(NCc1[nH]nc(-c2ccc(F)cc2)c1-c1ccncc1)c1ccc(S(=O)(=O)c2ccccc2)s1` [Example B-0263]: at human p38 kinase alpha, the pIC50 was 6.21. The inhibition at 1 µM in the assay on TNF-α was 64%.

Take `C[C@@H](NC(=O)N1CCOCC1)c1[nH]nc(-c2ccc(F)cc2)c1-c1ccncc1` [Example B-0405]: the pIC50 at human p38 kinase alpha is 6.10. Further, in the assay on TNF-α, the inhibition at 1 µM worked out at 30%.

For `C=CCNC(=O)N[C@H](C)c1[nH]nc(-c2ccc(F)cc2)c1-c1ccncc1` [Example B-0412], the pIC50 on human p38 kinase alpha is 6.62. In addition, the inhibition at 1 µM in the assay with TNF-α is 48%.

`C[C@@H](NC(=O)c1c(F)cc(F)cc1F)c1[nH]nc(-c2ccc(F)cc2)c1-c1ccncc1` [Example B-0507]: the pIC50 on human p38 kinase alpha is 6.74. For the same molecule, the inhibition at 1 µM in the assay on TNF-α stood at 75%.

For `O=S(=O)(NCc1[nH]nc(-c2ccc(F)cc2)c1-c1ccncc1)c1ccc(-c2ccccn2)s1` [Example B-0258], the pIC50 on human p38 kinase alpha is 6.43. In the assay on TNF-α, the inhibition at 1 µM came out at 63%.

For `C[C@@H](NC(=O)C1CCCC1)c1[nH]nc(-c2ccc(F)cc2)c1-c1ccncc1` [Example B-0376], the pIC50 on human p38 kinase alpha was 5.52. The inhibition at 1 µM in the assay on TNF-α came out at 12%.

As to `C[C@@H](NC(=O)c1cc2ccccc2s1)c1[nH]nc(-c2ccc(F)cc2)c1-c1ccncc1` [Example B-0496], the pIC50 on human p38 kinase alpha is 6.08. The inhibition at 1 µM in the assay on TNF-α is 16%.

Turning to `COC(=O)CCC(=O)NCc1[nH]nc(-c2ccc(F)cc2)c1-c1ccncc1` [Example B-0077], the pIC50 at human p38 kinase alpha is 6.10; in the assay on TNF-α it was 5.00.

In the case of `C[C@@H](NC(=O)[C@H]1CCCN1)c1[nH]nc(-c2ccc(F)cc2)c1-c1ccncc1` [Example B-0427], the pIC50 at human p38 kinase alpha is 6.20. For the same molecule, in the assay with TNF-α, the inhibition at 1 µM stood at 39%.

As to `O=C(Cc1cccc2ccccc12)NCc1[nH]nc(-c2ccc(F)cc2)c1-c1ccncc1` [Example B-0171], the inhibition at 10 µM at human p38 kinase alpha is 61%. The inhibition at 1 µM with TNF-α came out at 21%.

For `COc1ccc(S(=O)(=O)N[C@H](C)c2[nH]nc(-c3ccc(F)cc3)c2-c2ccncc2)cc1OC` [Example B-0400], the pIC50 at human p38 kinase alpha was 6.80. Moreover, the inhibition at 1 µM in the assay on TNF-α amounted to 25%.

With `COc1ccc(CC(=O)N[C@H](C)c2[nH]nc(-c3ccc(F)cc3)c2-c2ccncc2)cc1` [Example B-0372], the pIC50 at human p38 kinase alpha is 6.46. The inhibition at 1 µM in the assay with TNF-α came out at 29%.

With `CNC(=O)NCc1[nH]nc(-c2ccc(F)cc2)c1-c1ccncc1` [Example B-0211], the pIC50 on human p38 kinase alpha is 6.60. Besides, in the assay with TNF-α, the inhibition at 1 µM worked out at 30%.

Consider `O=C(NCc1[nH]nc(-c2ccc(F)cc2)c1-c1ccncc1)C1CCC1` [Example B-0066], for which the inhibition at 1 µM at human p38 kinase alpha amounted to 94%; in the assay on TNF-α, 28%.

The record behind these values is US6525059B1, “Substituted pyrazoles as p38 kinase inhibitors” (G. D. Searle & Company, priority 1998, dated 2003).
